Test: MIC of test compounds against various organisms
Format: cell-based, S. aureus, S. pneumoniae, H. influenzae, E. faecalis
Description: The MIC (μg/ml) of test compounds against various organisms was determined: S. aureus Oxford, S. aureus WCUH29, S. pneumoniae 1629, S. pneumoniae N1387, S. pneumoniae ERY 2, H. influenzae Q1, E. faecalis 7.

Structure (SMILES) | MIC
COc1ccc2nccc(NC(=O)N3CCN(CC(=O)c4cnc5ccccc5n4)CC3)c2n1 [Example 10, 4-(2-Oxo-2-quinoxalin-2-yl-ethyl)-piperazine-1-carboxylic acid (6-methoxy-[1,5]naphthyridin-4-yl)-amide.] | ≤ 2 µg/mL
COc1ccc2nccc(NC(=O)N3CCN(CC(=O)c4ccc5c(c4)NC(=O)CO5)CC3)c2n1 [Example 12, 4-[2-Oxo-2-(3-oxo-3,4-dihydro-2H-benzo[1,4]oxazin-6-yl)-ethyl]piperazine-1-carboxylic acid (6-methoxy-[1,5]naphthyridin-4-yl)-amide.] | ≤ 0.25 µg/mL
